Test system: L-arginine deiminase (ADI)
Experiment: Lineweaver-Burk plot; ammonia release with Nessler's reagent
Assay type: biochemical, Penicillium chrysogenum
Conditions: free enzyme; pH and temperature of the kinetic assay not given

`N=C(N)NCCC[C@H](N)C(=O)O` [L-arginine] showed a Km of 760 µM.
